This is an account of results in publication PMC6631223, “Chain-Branched Polyhydroxylated Octahydro-1H-Indoles as Potential Leads against Lysosomal Storage Diseases” (Pharmaceuticals, 2019).

The inhibition is the share of the control response that was lost under treatment.

Each structure is given as a SMILES string. Marks after values point to notes of the source that are not given here.

Holding throughout (type): biochemical
The target of assay [1] is T1, α-Galactosidase (coffee beans) (Coffea arabica, UniProt Q42656).
T1 construct: purchased Sigma-Aldrich Co
The assay can be described thus: Glycosidase inhibition: α-galactosidase (coffee beans). The note with it: read-out: inhibition % at 1000 μM. The text has this:
(§1) The enzymes α-glucosidase (from yeast, rice), β-glucosidase (from almonds, bovine liver), α-galactosidase (from coffee beans), β-galactosidase (from bovine liver), α-mannosidase (from jack beans), β-mannosidase (from snails), α-L-fucosidase (from bovine kidney), α-L-rhamnosidase (from Penicillium decumbens), β-glucuronidases (from Escherichia coli), α,α-trehalase (from porcine kidney), amyloglucosidase (from Aspergillus niger), p-nitrophenyl glycosides, and various disaccharides were purchased from Sigma-Aldrich Co. Brush border membranes were prepared from the rat small intestine according to the method of Kessler et al., and were assayed at pH 6.8 for rat intestinal maltase using maltose. For rat intestinal glucosidases and porcine kidney trehalase activities, the reaction mixture (0.2 mL) contained 25 mM substrate and the appropriate amount of enzyme, and the incubations were performed for 10 min at 37 °C. The reaction was stopped by heating at 100 °C for 3 min. After centrifugation (600 g; 10 min), 0.035 mL of the resulting reaction mixture were added to 2.1 mL of the Glucose CII-test Wako (Wako Pure Chemical Ind., Osaka, Japan). The absorbance at 505 nm was measured to determine the amount of the released D-glucose. Other glycosidase activities were determined using an appropriate p-nitrophenyl glycoside as substrate at the optimum pH of each enzyme. The reaction mixture (0.2 mL) contained 2 mM of the substrate and the appropriate amount of enzyme. The reaction was stopped by adding 0.4 mL of 400 mM Na2CO3. The released p-nitrophenol was measured spectrometrically at 400 nm.

The target in assay [2] is T2, β-Galactosidase (bovine liver) (Bos taurus, UniProt Q58D55).
T2 sequence (Q58D55 28-653): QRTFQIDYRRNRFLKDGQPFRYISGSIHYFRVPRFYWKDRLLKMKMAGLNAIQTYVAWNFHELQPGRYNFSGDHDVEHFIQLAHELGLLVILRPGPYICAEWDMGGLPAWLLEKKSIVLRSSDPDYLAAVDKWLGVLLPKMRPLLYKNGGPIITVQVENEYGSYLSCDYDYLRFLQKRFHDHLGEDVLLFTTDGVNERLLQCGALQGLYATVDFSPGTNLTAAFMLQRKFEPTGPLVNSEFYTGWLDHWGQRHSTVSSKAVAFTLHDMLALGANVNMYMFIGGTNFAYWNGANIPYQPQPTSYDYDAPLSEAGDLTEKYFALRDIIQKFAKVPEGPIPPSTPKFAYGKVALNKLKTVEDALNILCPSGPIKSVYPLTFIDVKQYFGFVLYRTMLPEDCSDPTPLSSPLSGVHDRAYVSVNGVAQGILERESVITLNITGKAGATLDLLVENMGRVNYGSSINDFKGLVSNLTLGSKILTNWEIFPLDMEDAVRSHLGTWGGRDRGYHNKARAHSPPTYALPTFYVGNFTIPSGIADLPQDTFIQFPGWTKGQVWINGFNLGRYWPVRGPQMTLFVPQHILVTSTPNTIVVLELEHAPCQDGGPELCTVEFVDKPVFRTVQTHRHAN
The experiment in a line: Glycosidase inhibition: β-galactosidase (bovine liver).
Text: as §1, with “After centrifugation (600 g; 10 min), 0.035 mL of the resulting reaction mixture were added to 2.1 mL of the Glucose CII-test Wako (Wako Pure Chemical Ind., Osaka, Japan).” left out, “The reaction mixture (0.2 mL) contained 2 mM of the substrate and the appropriate amount of enzyme. The reaction was stopped by adding 0.4 mL of 400 mM Na2CO3.” left out

For the next assay, the target named is α-L-Rhamnosidase (Penicillium decumbens, UniProt S7ZS15). The experiment in a line: Glycosidase inhibition: α-L-rhamnosidase (Penicillium decumbens).
Text: as §1, with “After centrifugation (600 g; 10 min), 0.035 mL of the resulting reaction mixture were added to 2.1 mL of the Glucose CII-test Wako (Wako Pure Chemical Ind., Osaka, Japan).” left out, “The reaction mixture (0.2 mL) contained 2 mM of the substrate and the appropriate amount of enzyme. The reaction was stopped by adding 0.4 mL of 400 mM Na2CO3.” left out

In assay [3] the target is T3, α-Mannosidase (jack bean) (Canavalia ensiformis, UniProt C0HJB3).
T3 construct: purchased Sigma-Aldrich Co
T3 sequence (C0HJB3 1-981): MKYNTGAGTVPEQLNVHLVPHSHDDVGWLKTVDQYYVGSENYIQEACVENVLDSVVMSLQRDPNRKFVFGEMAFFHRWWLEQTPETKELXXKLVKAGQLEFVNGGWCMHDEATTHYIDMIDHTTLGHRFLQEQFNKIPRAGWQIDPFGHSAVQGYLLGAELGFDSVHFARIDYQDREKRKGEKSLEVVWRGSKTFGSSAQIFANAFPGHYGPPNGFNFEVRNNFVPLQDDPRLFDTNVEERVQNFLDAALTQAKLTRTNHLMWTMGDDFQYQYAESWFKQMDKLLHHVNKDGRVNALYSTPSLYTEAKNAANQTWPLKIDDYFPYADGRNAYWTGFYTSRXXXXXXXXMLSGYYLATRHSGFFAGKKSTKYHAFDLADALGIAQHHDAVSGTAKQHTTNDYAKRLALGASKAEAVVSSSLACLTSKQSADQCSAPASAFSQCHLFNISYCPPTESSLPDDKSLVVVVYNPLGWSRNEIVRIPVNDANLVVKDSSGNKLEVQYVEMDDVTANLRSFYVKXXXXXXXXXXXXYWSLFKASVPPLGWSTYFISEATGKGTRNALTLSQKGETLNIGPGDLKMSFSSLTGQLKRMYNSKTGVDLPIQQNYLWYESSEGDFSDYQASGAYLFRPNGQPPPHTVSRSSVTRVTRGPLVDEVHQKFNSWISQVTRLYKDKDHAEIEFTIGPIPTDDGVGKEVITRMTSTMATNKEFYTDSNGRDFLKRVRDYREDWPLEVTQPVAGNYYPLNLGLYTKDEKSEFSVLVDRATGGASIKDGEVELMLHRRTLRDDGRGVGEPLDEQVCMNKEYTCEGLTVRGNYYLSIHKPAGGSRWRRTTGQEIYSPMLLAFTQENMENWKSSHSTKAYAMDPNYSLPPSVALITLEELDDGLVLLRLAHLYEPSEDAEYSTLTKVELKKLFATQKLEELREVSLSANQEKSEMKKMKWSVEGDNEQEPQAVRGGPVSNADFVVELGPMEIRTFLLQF
The experiment in a line: Glycosidase inhibition: α-mannosidase (jack bean).
Text: as §1, with “After centrifugation (600 g; 10 min), 0.035 mL of the resulting reaction mixture were added to 2.1 mL of the Glucose CII-test Wako (Wako Pure Chemical Ind., Osaka, Japan).” left out, “The reaction mixture (0.2 mL) contained 2 mM of the substrate and the appropriate amount of enzyme. The reaction was stopped by adding 0.4 mL of 400 mM Na2CO3.” left out

For the next assay, the target named is T4, Amyloglucosidase (Aspergillus niger, UniProt P69328).
T4 construct: purchased Sigma-Aldrich Co
The experiment in a line: Glycosidase inhibition: amyloglucosidase (Aspergillus niger). The note with it: amyloglucosidase, Aspergillus niger; 1000 μM.
Text: as §1

In the next assay the target is T5, β-Glucronidase (E.coli) (Escherichia coli, UniProt P05804).
T5 construct: purchased Sigma-Aldrich Co
The experiment in a line: Glycosidase inhibition: β-glucuronidase (E. coli). The note with it: β-glucuronidase, E. coli; 1000 μM.
Text: as §1

The test system of another assay is β-Glucosidase (almond). The assay can be described thus: Glycosidase inhibition: β-glucosidase (almond). The note with it: 1000 μM.
Text: as §1

Another assay addresses T6, α-Glucosidase (rice) (Oryza sativa subsp. japonica, UniProt Q653V7).
T6 construct: purchased Sigma-Aldrich Co
The assay can be described thus: Glycosidase inhibition: α-glucosidase (rice). The note with it: read-out: inhibition % at 1000 μM.
Text: as §1

In another assay the test system is β-Mannosidase (snail). The assay can be described thus: Glycosidase inhibition: β-mannosidase (snail). The settings on record: 1000 μM.
Text: as §1

T1 sequence (Q42656 16-378): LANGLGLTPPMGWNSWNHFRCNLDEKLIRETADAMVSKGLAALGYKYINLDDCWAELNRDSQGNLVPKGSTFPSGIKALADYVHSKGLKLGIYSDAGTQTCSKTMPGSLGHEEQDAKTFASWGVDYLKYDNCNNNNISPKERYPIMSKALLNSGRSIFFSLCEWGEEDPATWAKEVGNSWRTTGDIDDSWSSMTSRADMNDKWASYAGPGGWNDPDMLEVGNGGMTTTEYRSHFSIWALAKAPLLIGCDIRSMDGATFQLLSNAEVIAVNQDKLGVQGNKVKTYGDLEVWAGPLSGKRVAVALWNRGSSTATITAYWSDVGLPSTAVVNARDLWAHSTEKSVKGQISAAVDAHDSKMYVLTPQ
Chain of α-L-Rhamnosidase (S7ZS15 entry or part of it): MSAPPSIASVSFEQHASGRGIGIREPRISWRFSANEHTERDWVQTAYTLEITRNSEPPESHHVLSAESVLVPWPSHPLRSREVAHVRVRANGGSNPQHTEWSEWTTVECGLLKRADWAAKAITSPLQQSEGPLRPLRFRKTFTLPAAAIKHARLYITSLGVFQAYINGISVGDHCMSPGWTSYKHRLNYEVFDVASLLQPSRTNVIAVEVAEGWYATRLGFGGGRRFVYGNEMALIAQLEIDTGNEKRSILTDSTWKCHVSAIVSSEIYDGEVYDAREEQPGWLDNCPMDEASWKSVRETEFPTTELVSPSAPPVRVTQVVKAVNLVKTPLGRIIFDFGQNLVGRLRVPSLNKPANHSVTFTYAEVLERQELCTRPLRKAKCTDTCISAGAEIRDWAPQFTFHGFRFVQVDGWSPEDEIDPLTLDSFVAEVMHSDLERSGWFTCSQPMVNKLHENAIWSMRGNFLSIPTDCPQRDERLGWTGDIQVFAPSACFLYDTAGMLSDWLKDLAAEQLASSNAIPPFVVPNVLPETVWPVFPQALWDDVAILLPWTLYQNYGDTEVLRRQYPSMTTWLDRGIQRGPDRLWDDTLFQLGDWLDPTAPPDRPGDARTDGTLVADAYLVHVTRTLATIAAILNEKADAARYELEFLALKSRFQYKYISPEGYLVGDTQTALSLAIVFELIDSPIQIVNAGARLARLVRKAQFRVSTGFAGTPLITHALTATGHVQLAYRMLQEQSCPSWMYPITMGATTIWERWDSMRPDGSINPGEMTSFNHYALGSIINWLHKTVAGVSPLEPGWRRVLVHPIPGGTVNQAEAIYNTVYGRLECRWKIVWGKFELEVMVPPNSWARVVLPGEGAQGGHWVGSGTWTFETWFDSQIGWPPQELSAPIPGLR
T6 sequence (Q653V7 34-885): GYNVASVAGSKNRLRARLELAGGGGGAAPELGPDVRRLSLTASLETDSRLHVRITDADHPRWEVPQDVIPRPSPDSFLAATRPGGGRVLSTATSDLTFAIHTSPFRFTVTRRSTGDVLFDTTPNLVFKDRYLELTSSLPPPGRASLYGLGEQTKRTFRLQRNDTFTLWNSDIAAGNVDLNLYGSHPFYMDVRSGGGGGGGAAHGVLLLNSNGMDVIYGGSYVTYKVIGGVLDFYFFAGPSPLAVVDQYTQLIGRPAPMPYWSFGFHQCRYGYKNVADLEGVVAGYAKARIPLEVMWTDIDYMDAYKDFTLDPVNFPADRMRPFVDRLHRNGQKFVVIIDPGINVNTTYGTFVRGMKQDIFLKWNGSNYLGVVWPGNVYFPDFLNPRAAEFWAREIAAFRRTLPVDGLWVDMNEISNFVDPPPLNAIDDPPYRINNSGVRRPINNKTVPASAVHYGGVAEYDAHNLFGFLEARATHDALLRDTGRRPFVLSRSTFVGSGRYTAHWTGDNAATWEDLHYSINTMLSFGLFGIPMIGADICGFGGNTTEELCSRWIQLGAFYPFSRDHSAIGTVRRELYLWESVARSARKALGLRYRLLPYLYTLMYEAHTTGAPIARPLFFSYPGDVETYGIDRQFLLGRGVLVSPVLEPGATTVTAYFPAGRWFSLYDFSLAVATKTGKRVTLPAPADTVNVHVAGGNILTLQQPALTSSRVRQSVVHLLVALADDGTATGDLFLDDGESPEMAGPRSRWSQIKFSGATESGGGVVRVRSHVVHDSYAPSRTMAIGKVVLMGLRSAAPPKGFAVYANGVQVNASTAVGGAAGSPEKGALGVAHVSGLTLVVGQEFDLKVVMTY
T4 sequence (P69328 25-640): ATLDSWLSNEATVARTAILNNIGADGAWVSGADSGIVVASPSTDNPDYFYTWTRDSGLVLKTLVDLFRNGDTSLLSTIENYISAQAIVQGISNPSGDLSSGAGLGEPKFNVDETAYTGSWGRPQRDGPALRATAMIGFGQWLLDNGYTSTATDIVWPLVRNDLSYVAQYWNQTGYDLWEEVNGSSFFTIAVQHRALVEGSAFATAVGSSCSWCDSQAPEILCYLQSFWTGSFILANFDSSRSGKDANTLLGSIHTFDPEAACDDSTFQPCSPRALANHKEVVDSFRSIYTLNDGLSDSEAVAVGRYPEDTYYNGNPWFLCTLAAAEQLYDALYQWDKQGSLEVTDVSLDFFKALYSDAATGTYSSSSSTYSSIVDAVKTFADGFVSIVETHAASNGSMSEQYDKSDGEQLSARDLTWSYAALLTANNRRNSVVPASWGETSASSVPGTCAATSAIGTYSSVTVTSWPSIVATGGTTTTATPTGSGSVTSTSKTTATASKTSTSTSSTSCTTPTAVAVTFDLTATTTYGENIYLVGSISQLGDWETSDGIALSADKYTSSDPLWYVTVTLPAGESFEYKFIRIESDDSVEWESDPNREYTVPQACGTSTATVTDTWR
T5 sequence (P05804 whole entry): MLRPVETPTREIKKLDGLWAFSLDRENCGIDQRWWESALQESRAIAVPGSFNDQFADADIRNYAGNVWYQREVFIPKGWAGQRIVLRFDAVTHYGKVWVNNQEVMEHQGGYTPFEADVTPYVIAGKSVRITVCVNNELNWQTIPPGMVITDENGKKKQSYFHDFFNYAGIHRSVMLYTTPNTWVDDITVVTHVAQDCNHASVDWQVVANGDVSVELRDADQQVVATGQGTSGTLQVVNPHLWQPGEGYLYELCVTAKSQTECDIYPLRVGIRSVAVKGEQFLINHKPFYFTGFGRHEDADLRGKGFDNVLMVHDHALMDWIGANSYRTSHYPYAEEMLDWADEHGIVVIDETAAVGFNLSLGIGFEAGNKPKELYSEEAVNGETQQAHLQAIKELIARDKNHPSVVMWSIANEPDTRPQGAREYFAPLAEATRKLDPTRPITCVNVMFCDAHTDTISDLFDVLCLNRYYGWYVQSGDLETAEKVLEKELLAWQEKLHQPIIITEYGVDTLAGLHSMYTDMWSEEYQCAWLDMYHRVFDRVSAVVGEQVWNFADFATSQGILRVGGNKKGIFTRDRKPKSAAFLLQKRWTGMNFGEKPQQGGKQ

Take `CC[C@@H]1CN[C@H]2C[C@@H](O)[C@H](O)[C@@H](O)[C@H]12` [Compound 10, (3S,3aR,4S,5S,6R,7aS)-3-Ethyloctahydro-1H-indole-4,5,6-triol]: the inhibition at 1000 µM in assay [1] was 15.9%; in assay [2] it was less than 50%; against α-L-Rhamnosidase, 0%; in assay [3] it was 0%; at Amyloglucosidase, 0%; against β-Glucronidase (E.coli) it was 18.1%. For the same compound, the inhibition at 1000 µM at α-Glucosidase (rice) turned out to be 0%. The “inhibition % at 1000 μM” value in the assay with β-Glucosidase (almond) is 12% ^a; in the assay on β-Mannosidase (snail), 0% ^a.
In the case of `CC[C@H]1CN[C@H]2C[C@@H](O)[C@H](O)[C@@H](O)[C@H]12` [Compound 13, (3R,3aR,4S,5S,6R,7aS)-3-ethyloctahydro-1H-indole-4,5,6-triol], the inhibition at 1000 µM in assay [1] is 0%; in assay [2], less than 50%; against α-L-Rhamnosidase, 0%; in assay [3], 0%; against Amyloglucosidase it was 0%; against β-Glucronidase (E.coli), 12.3%. Also, the inhibition at 1000 µM on α-Glucosidase (rice) is 0%. Further, the “inhibition % at 1000 μM” value stood at 5% ^a in the assay on β-Glucosidase (almond) and 2.3% ^a in the assay on β-Mannosidase (snail).
